Data published in patent US11072633B2 (priority 2016, dated 2021).
pIC50: −log10 of the molar value. Read-outs that look alike come from different tables or passages of the source.

How the values were obtained:
in vitro [1] = assay type: cell-based; conditions: human
Description: (§1) The cytotoxicity of SB107 was determined by measuring […], THP-1, HepG2, and HK-2 cell viability after 3 days in the presence of SB107 in a 384-well plate format. SB107 was prepared as 10-point serial dilutions in DMSO, with the highest concentration at 30 μM. Assay plates were incubated for 3 days at 37° C., 5% CO2 and relative luminescent units (RLU) were measured using the CellTiter-Glo® Luminescent Cell Viability Assay. The dose response curve was fitted using the Levenberg-Marquardt algorithm.

Mtb = test: Isoniazid MIC shift on Mtb MIC plates (broth microdilution MIC); assay type: cell-based, M. tuberculosis
[2] = Pharmacokinetics and bioavailability in plasma; conditions: male, CD-1, mouse
in vitro [3] = assay type: cell-based; conditions: human; remark: listed apart in the source
Description: as §1

in vitro [4] = assay type: cell-based; conditions: human; remark: listed apart in the source
Description: as §1

in vitro [5] = assay type: cell-based; conditions: human; remark: listed apart in the source
Description: as §1

in vivo [6] = conditions: male, CD-1, mouse
[7] = tested on: M. tuberculosis constitutively expressing the luxABCDE operon; test: microbe, parasite or virus in culture; assay type: cell-based
hERG = molecular target: T1, hERG (Homo sapiens, UniProt Q12809); test: hERG assay (hERG currents in HEK 293 cells); assay type: cell-based
T1 construct: expressed in transfected cells
Description: hERG stably expressed HEK 293 cells were seeded at 5×10^5 cells/per 6 cm cell culture dish and induced with doxycycline at 1 μg/mL for 48 hours. Compound at the final concentrations of 30, 10, 3.33, 1.11 and 0.37 μM was applied to the cells accumulatively, post-compound hERG currents were recorded, and IC50 was calculated. Dofetilide was used as a positive control.
To predict the potential cardiotoxic effects of 6-azastroids, human ether-a-go-go related gene (hERG) assay was applied to 100, 107 and 114 (Table 9). Cytotoxicity of 107 was also assessed (Table 10).

CYP2B6 = molecular target: T2, CYP2B6 (Homo sapiens, UniProt P20813); test: in vitro; assay type: in vitro ADME; conditions: both sexes, microsomes, read-out: % Inhibition 2B6
T2 construct: using pooled male and female human liver microsomes; from tissue; host or cells: pooled human liver microsomes
Description: (§2) The potential for inhibtion of CYP enzymes (CYP1A2, CYP2A6, CYP2B6, CYP2C8, CYP2C9, CYP2C19, CYP2D6, CYP2E1 and CYP3A4) by 107 at 10 μM were using pooled male and female human liver microsomes, Freshly plated human microsomes with substrate to each CYP enzyme was treated with 107 for 5-20 min. The concentrations of marker metabolites of known substrates were determined by LCMS analysis.
(§3) The inhibition of CYP enzymes by 107 was evaluated in human liver microsomes (Table 11).

CYP2A6 = molecular target: T3, CYP2A6 (Homo sapiens, UniProt P11509); test: in vitro; assay type: in vitro ADME; conditions: both sexes, microsomes, read-out: % Inhibition 2A6
T3 construct: using pooled male and female human liver microsomes; from tissue; host or cells: pooled human liver microsomes
Description: as §2, §3

CYP2E1 = molecular target: T4, CYP2E1 (Homo sapiens, UniProt P05181); test: in vitro; assay type: in vitro ADME; conditions: both sexes, microsomes, read-out: % Inhibition 2E1
T4 construct: using pooled male and female human liver microsomes; from tissue; host or cells: pooled human liver microsomes
Description: as §2, §3

CYP2C19 = molecular target: T5, CYP2C19 (Homo sapiens, UniProt P33261); test: in vitro; assay type: in vitro ADME; conditions: both sexes, microsomes, read-out: % Inhibition 2C19
T5 construct: using pooled male and female human liver microsomes; from tissue; host or cells: pooled human liver microsomes
Description: as §2, §3

CYP2C9 = molecular target: T6, CYP2C9 (Homo sapiens, UniProt P11712); test: in vitro; assay type: in vitro ADME; conditions: both sexes, microsomes, read-out: % Inhibition 2C9
T6 construct: using pooled male and female human liver microsomes; from tissue; host or cells: pooled human liver microsomes
Description: as §2, §3

CYP2C8 = molecular target: T7, CYP2C8 (Homo sapiens, UniProt P10632); test: in vitro; assay type: in vitro ADME; conditions: both sexes, microsomes, read-out: % Inhibition 2C8
T7 construct: using pooled male and female human liver microsomes; from tissue; host or cells: pooled human liver microsomes
Description: as §2, §3

CYP2D6 = molecular target: T8, CYP2D6 (Homo sapiens, UniProt P10635); test: in vitro; assay type: in vitro ADME; conditions: both sexes, microsomes, read-out: % Inhibition 2D6
T8 construct: using pooled male and female human liver microsomes; from tissue; host or cells: pooled human liver microsomes
Description: as §2, §3

CYP1A2 = molecular target: T9, CYP1A2 (Homo sapiens, UniProt P05177); test: in vitro; assay type: in vitro ADME; conditions: both sexes, microsomes, read-out: % Inhibition 1A2
T9 construct: using pooled male and female human liver microsomes; from tissue; host or cells: pooled human liver microsomes
Description: as §2, §3

in vitro [8] = assay type: in vitro ADME; conditions: human
Description: (§4) Caco-2 cells were diluted to 6.86×10^6 cells/mL, dispensed into a 96-well HTS Transwell plate, and cultured for 14 to 18 days. 6-azasteroids at 5 μM was incubated at 37° C. for 2 hours with the Caco-2 cell monolayer in HBSS buffer (10 mM HEPES, pH 7.4) containing 5% BSA. Aliquots from donor sides (apical compartment for Ap→Bl flux, and basolateral compartment for Bl→Ap) and receiver sides (basolateral compartment for Ap→Bl flux, and apical compartment for Bl→Ap) were separated and extracted by acetonitrile or methanol containing appropriate internal standards (IS). The concentration of 6-azasteroid was determined by LC-MS/MS analysis.
(§5) Elution rate: 0.65 mL/min.
(§6) To predict absorption via oral administration, Caco-2 bidirectional permeability assay was performed (Table 8).

Caco-2 cell line = test: in vitro; assay type: in vitro ADME; conditions: human, Caco-2, 2 h, 5 μM, pH 7.4
Description: as §4, §5, §6

in vivo [9] = conditions: male, CD-1, mouse; remark: listed apart in the source
M. tuberculosis = test: Minimum Bactericidal Concentration (MBC); assay type: cell-based; conditions: Mycobacterium tuberculosis; INH with 60 μM 107; read-out: MBC of INH
in vitro [10] = conditions: both, human, microsomes, pH 7.4
[11] = Metabolic stability in human liver microsomes; conditions: both, pH 7.4
[12] = both, human, microsomes, 2 μM, pH 7.4
CYP3A4 = molecular target: T10, CYP3A4 (Homo sapiens, UniProt P08684); test: Inhibition of CYPs in human liver microsomes, CYP3A4; assay type: in vitro ADME; conditions: for inhibition at 10 µM: both sexes, human, microsomes
T10 construct: using pooled male and female human liver microsomes; from tissue; host or cells: pooled human liver microsomes
Description: as §2, §3

T1 sequence (Q12809 whole entry): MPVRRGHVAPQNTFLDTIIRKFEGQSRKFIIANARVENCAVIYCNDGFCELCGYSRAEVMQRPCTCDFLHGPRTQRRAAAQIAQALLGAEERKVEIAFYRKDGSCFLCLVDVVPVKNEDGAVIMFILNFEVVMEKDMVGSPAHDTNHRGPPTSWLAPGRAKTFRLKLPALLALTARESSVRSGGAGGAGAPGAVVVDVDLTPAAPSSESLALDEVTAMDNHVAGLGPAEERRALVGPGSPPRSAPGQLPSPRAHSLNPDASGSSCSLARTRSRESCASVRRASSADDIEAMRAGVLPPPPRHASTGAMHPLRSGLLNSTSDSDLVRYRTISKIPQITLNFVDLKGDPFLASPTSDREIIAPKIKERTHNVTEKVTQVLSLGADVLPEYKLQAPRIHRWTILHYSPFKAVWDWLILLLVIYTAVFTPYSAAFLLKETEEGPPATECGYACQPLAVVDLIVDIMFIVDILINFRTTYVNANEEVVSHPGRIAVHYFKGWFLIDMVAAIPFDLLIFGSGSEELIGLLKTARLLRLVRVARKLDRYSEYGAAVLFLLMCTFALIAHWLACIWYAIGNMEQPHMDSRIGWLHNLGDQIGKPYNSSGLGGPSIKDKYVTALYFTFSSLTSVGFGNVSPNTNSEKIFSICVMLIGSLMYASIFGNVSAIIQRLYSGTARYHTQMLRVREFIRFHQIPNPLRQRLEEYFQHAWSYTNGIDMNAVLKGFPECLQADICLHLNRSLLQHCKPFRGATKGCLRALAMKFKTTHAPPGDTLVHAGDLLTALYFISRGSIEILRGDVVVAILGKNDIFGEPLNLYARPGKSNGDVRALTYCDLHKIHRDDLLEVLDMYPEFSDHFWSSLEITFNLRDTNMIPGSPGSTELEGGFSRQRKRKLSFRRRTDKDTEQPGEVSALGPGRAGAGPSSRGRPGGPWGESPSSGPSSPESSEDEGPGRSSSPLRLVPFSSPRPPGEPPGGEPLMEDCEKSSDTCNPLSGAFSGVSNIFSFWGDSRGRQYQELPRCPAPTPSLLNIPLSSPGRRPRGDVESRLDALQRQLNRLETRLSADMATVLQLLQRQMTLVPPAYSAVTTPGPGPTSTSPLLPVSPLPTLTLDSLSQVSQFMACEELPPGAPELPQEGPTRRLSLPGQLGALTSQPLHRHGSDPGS
T10 sequence (P08684 whole entry): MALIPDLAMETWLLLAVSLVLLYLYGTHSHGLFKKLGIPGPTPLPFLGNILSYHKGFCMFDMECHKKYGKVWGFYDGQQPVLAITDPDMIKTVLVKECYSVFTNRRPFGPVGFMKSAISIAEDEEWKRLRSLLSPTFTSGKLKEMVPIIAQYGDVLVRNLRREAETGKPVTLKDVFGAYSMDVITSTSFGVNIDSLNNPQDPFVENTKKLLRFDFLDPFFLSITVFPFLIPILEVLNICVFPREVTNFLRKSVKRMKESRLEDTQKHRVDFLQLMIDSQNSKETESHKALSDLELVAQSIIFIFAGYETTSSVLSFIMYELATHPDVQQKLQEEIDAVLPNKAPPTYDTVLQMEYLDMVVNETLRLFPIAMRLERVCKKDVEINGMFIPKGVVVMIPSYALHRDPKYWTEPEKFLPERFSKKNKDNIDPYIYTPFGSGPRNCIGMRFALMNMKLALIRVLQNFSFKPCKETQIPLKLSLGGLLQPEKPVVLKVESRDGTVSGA
T7 sequence (P10632 whole entry): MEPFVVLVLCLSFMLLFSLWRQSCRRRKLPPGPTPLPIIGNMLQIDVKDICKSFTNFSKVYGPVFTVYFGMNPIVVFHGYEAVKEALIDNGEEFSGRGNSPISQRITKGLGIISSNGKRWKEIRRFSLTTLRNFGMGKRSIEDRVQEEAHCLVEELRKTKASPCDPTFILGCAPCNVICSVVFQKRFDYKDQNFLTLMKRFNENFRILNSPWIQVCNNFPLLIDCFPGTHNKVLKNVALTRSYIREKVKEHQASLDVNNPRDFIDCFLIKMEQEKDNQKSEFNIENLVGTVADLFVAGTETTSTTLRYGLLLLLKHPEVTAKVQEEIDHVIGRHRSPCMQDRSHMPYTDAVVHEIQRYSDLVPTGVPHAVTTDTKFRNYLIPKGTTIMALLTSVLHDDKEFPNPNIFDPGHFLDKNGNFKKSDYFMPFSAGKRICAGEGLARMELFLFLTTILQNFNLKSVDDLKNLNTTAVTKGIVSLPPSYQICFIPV
T8 sequence (P10635 whole entry): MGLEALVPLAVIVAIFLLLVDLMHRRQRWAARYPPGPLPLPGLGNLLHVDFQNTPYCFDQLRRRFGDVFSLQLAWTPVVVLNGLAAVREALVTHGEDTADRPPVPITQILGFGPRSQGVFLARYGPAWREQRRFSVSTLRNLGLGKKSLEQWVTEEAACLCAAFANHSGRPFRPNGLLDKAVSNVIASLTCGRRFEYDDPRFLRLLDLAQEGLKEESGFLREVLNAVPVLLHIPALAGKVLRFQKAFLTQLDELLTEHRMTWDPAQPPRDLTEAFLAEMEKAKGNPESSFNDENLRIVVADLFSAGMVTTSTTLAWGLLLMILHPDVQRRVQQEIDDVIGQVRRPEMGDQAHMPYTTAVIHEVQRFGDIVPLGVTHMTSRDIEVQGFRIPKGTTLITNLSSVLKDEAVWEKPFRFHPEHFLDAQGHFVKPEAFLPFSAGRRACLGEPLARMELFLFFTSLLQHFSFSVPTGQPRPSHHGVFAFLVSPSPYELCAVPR
T9 sequence (P05177 whole entry): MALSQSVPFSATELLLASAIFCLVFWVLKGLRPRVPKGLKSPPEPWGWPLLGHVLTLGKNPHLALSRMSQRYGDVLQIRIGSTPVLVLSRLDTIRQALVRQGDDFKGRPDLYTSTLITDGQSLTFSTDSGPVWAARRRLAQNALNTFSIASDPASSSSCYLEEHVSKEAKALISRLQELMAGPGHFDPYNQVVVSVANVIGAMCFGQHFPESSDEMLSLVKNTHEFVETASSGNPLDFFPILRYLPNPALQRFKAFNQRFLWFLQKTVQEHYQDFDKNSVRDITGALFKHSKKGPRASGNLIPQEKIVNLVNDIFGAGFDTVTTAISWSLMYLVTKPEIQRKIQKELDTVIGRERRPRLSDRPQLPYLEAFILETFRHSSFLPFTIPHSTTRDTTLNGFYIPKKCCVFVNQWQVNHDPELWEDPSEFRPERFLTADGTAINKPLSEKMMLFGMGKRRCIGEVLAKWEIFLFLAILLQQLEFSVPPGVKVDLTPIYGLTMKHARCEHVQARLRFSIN
T2 sequence (P20813 whole entry): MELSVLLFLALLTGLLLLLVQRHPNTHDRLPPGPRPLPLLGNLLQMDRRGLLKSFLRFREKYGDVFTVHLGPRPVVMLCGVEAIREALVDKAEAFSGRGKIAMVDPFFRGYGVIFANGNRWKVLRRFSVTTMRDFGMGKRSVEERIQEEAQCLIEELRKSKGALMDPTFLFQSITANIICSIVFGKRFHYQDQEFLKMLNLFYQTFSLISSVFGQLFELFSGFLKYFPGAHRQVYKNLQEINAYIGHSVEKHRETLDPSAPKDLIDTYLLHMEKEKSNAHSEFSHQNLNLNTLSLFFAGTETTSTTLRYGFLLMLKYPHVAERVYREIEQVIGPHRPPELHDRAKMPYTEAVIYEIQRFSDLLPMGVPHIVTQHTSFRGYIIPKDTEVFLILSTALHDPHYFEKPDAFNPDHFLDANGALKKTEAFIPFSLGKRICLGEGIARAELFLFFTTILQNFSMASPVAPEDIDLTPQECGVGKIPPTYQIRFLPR
T5 sequence (P33261 whole entry): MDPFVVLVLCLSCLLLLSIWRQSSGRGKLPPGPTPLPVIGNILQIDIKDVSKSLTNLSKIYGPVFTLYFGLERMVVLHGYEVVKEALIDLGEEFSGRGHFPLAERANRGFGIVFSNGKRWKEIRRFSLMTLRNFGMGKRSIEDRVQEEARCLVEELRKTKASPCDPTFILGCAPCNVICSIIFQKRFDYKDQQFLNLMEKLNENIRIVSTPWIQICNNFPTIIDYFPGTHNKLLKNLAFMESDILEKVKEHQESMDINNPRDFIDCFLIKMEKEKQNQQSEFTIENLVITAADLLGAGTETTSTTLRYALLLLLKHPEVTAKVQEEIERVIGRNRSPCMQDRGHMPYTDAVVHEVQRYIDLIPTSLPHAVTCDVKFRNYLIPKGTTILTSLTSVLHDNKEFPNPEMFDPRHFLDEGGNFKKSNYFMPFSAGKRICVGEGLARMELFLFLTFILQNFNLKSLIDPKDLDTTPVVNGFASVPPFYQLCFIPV
T6 sequence (P11712 whole entry): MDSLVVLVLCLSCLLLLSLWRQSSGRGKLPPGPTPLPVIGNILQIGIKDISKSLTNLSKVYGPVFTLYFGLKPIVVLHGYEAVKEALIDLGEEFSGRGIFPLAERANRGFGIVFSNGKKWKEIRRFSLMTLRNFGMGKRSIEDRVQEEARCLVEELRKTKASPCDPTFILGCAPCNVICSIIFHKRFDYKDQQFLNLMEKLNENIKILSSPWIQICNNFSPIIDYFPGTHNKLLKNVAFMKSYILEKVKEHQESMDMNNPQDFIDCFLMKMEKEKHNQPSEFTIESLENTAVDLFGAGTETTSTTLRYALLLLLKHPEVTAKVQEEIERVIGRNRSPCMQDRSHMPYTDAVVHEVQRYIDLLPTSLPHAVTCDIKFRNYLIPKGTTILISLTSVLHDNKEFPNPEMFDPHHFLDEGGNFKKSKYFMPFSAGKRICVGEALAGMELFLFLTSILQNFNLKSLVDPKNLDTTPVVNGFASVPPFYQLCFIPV

COc1nc(OC(F)(F)F)c(NC(=O)C2CCC3C4CN(C(=O)OC(C)(C)C)C5=CC(=O)CC[C@]5(C)C4CC[C@]23C)cc1Br (stereo partly drawn) [Compound 107]
IC50 at 3 days (in vitro [1]): > 30 µM
Isoniazid MIC shift (Mtb): ++ (4-8-fold ++)
half-life ([2]; iv, 1 mg/kg): 6.75 h
half-life ([2]; po, 5 mg/kg): 4.98 h
IC50 at 3 days (in vitro [3]): > 30 µM
IC50 at 3 days (in vitro [4]): > 30 µM
IC50 at 3 days (in vitro [5]): > 30 µM
t1/2 Lung PO (Lung tissue distribution; PO 5 mg/kg, lung, 5 mg/kg): 5.82 h
half-life (Lung tissue distribution; male, CD-1, mouse, lung, iv, 1 mg/kg, t1/2 Lung IV, IV 1 mg/kg): 6.88 h
half-life (Lung tissue distribution; male, CD-1, mouse, lung, po, 5 mg/kg, t1/2 Lung PO, PO 5 mg/kg): 5.8 h
Kp (Lung tissue distribution; male, CD-1, mouse, lung/plasma, po, 5 mg/kg): 1.74
Tmax (in vivo [6]; iv, 1 mg/kg): 0.0833 h
Tmax (in vivo [6]; po, 5 mg/kg): 1 h
MIC ([7]; Mycobacterium tuberculosis, INH with 15 μM 6-azasteroid, read-out: LORA MIC of INH): 0.75 µM
activity under low oxygen conditions ([7]; in combination with isoniazid): active
hERG inhibition (hERG; at 30 μM): No hERG inhibition was observed
pIC50 (hERG; hERG stably expressed HEK 293 cells): < 4.52
inhibition at 30 mM (hERG; human, HEK 293 cells stably expressing hERG, at 30 mM): 34.1%
inhibition at 10 µM (CYP2B6): 0%
inhibition at 10 µM (CYP2A6): 16.5%
inhibition at 10 µM (CYP2E1): 0%
inhibition at 10 µM (CYP2C19): 65.3%
inhibition at 10 µM (CYP2C9): 33.1%
inhibition at 10 µM (CYP2C8): 39.7%
inhibition at 10 µM (CYP2D6): 4.4%
inhibition at 10 µM (CYP1A2): 0%
efflux ratio at 2 h, 5 μM (in vitro [8]; Caco-2, pH 7.4, Efflux Ratio): > 1.06
recovery at 2 h, 5 μM (in vitro [8]; Caco-2, pH 7.4, Recovery (%) BL-AP): 63.4%
Efflux Ratio (Caco-2 cell line): 0.71
Recovery (%) BL-AP (Caco-2 cell line): 58.07%
half-life (in vivo [9]): ~7 h
Tmax (in vivo [9]; po, 5 mg/kg): 1 h
MBC (M. tuberculosis): 3 µM
CLint scaled at 2 μM (in vitro [10]): 18.8 mL/min/kg
microsomal CLint at 2 μM (in vitro [10]): 15 µL/min/mg
half-life at 2 μM [11]: 1.54 h
Remaining Percentage with NADPH, 0 min ([12]; 0 h): 100.00%
Remaining Percentage with NADPH, 15 min ([12]; 0.25 h): 93.28%
Remaining Percentage with NADPH, 30 min ([12]; 0.5 h): 79.18%
Remaining Percentage with NADPH, 45 min ([12]; 0.75 h): 71.86%
Remaining Percentage with NADPH, 60 min ([12]; 1 h): 65.13%
inhibition at 10 µM (CYP3A4; 107 at 10 μM, either midazolam or testosterone as substrate, read-out: inhibition of CYP 3A4): 30%
inhibition at 10 µM (CYP3A4; at 10 μM, midazolam as substrate, read-out: % Inhibition 3A4 (midazolam)): 30.4%
inhibition at 10 µM (CYP3A4; at 10 μM, testosterone as substrate, read-out: % Inhibition 3A4 (testosterone)): 30.5%
pIC50 (CYP3A4; both substrates (midazolam, testosterone), tested 10 nM to 50 μM, read-out: CYP 3A4 IC50): < 4.30
